Data: PMC12186255, “Discovery and Characterization of Small Molecule Inhibitors Targeting Exonuclease 1 for Homologous Recombination-Deficient Cancer Therapy” (ACS Chemical Biology, 2025)

Tests used:
[1] = test system: MDA-MB-436 (BRCA1−) and MDA-MB-436 (BRCA1+) cells; experiment: Annexin V apoptosis assay; format: cell-based, human; conditions: 5 days of treatment
Description: After 24 h of incubation, testing compounds were added to cells at final concentrations of 50, 25, 12, and 5 μM using the Echo Liquid Handler (Beckman). Subsequently, 10 μL of the NIR-labeled Annexin V apoptosis reagent (Cat. #4768, Sartorius, Germany) was added to each well at a 1:200 final dilution. The plates were then transferred to the Incucyte Live-Cell Analysis System for real-time apoptosis monitoring over a 5 day period. Imaging was conducted using a 10× objective with phase-contrast and near-infrared (NIR) fluorescent channels, capturing scans every 2 h. Image analysis was performed with the Incucyte software, and the total NIR fluorescence intensity was quantified to evaluate the apoptosis.

[2] = test system: MDA-MB-436 (BRCA1−) tumors; experiment: In vivo tumor growth assay, xenograft; design: species or system mouse; conditions: p = 0.018
Description: (§1) The tumor growth rate of human breast cancer cells with or without treatment with EXO1i was evaluated by using a xenograft breast cancer mouse model. […] The tumor volume in each mouse was measured twice a week and calculated using the formula (length × width × width)/2 (mm^3). When the tumors reached a volume of 1000 mm^3, the mice were euthanized. Animal studies were conducted in accordance with an approved protocol adhering to the IACUC policies and procedures of the City of Hope.

[3] = test system: MDA-MB-436 (BRCA1+) tumors; experiment: In vivo tumor growth assay, xenograft; design: species or system mouse; conditions: p = 0.64
Description: as §1

[4] = 8.5 mg/kg daily intraperitoneal

`Cc1cccc(N2CCN(c3ccc(NS(=O)(=O)c4ccccc4)c(C(=O)O)c3)CC2)c1C` [F684] was tested, and the “apoptosis (Annexin V fluorescence intensity), BRCA1− vs BRCA1+” value [1] was “substantially stronger killing effect in a BRCA1– context”, the “average growth rate of BRCA1– tumors” value ([2]; 8.5 mg/kg body weight/day intraperitoneal, NSG mice, vehicle […]) was 11.3 %/day and the “tumor volumes compared with vehicle, BRCA1- mouse models” value [2, 4] was “significantly reduced tumor volumes”. The “average growth rate of BRCA1+ tumors” value ([3]; 8.5 mg/kg body weight/day intraperitoneal, NSG mice, vehicle 16.6) was 15.1 %/day and the “tumor volumes compared with vehicle, BRCA1+ tumors” value [3, 4] was “no effect”.
